Reference: ChEMBL document CHEMBL1139967, “Design, synthesis, and SAR of macrocyclic tertiary carbinamine BACE-1 inhibitors” (Bioorg Med Chem Lett, 2007)
pIC50: −log10 of the molar value.

Tests used:
in vitro = conditions: human, LLC-PK1
Description: Apparent permeability across L-MDR1 cells

Brain = assay: Drug level in mouse brain at 30 mg/kg, ip after 2 hrs; type: ADME, organism-based; design: dose 30 mg/kg, route intraperitoneal; conditions: in vivo
Renin = molecular target: T1, Renin (Homo sapiens, UniProt P00797); assay: Inhibition of renin
T1 sequence (P00797 whole entry): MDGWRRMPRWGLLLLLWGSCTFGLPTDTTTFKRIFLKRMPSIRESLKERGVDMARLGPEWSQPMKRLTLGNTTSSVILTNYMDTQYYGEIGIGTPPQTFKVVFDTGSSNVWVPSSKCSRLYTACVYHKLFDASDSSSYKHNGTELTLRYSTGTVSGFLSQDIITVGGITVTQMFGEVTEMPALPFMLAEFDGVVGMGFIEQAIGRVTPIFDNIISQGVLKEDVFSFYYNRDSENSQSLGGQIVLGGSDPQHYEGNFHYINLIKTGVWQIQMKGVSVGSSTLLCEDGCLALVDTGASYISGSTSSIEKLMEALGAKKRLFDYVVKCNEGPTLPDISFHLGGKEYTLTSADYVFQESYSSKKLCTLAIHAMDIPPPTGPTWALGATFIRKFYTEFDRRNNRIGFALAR

Beta-secretase 2 = molecular target: T2, Beta-secretase 2 (Homo sapiens, UniProt Q9Y5Z0); assay: Inhibition of BACE2
T2 sequence (Q9Y5Z0 whole entry): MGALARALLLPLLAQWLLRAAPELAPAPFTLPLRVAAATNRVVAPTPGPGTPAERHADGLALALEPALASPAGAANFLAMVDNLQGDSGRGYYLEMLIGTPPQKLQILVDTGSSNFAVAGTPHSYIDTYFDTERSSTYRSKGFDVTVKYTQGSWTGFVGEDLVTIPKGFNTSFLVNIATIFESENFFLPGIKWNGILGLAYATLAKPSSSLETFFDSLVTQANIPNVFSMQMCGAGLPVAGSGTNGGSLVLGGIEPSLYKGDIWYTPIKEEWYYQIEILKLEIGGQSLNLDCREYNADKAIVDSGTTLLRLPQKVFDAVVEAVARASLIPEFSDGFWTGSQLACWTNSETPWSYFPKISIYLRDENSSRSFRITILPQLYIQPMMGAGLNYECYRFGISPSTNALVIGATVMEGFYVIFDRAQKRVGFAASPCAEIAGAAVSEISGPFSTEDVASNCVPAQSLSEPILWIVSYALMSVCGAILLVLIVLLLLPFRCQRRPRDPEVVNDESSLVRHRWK

Cathepsin D = Cathepsin D (Homo sapiens, UniProt P07339)
Sequence of Cathepsin D (P07339 65-162 limits assumed): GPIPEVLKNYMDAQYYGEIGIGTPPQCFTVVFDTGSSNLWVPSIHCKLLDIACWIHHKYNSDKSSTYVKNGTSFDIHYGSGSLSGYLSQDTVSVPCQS
Sequence of Cathepsin D (P07339 169-412 limits assumed): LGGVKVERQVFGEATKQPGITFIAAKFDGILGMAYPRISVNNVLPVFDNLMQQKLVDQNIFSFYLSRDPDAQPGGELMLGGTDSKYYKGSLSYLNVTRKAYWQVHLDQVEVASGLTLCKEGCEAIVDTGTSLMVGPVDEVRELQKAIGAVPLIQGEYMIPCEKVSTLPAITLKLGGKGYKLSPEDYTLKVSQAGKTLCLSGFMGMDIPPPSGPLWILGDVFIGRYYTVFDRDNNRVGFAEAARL
Description: Inhibition of cathepsin D

Structure (SMILES): CN(c1cc2cc(c1)C(=O)N[C@@H](c1ccccc1)CCc1cccc(c1)C[C@@](C)(N)C(=O)OC2)S(C)(=O)=O
- Papp (in vitro): 9 ×10⁻⁶ cm/s

Structure (SMILES): CN(c1cc2cc(c1)C(=O)N[C@@H](c1ccccc1)CCc1cccc(c1)C[C@@](C)(N)C(=O)OC2)S(=O)(=O)CC(F)(F)F
- Papp (in vitro): 12 ×10⁻⁶ cm/s

Structure (SMILES): CN(C)S(=O)(=O)N(C)c1cc2cc(c1)C(=O)N[C@@H](c1ccccc1)CCc1cccc(c1)C[C@@](C)(N)C(=O)OC2
- Papp (in vitro): 15 ×10⁻⁶ cm/s

Structure (SMILES): C[C@@]1(N)Cc2cccc(c2)CC[C@H](c2ccccc2)NC(=O)c2cc(cc(-c3ccccc3C#N)c2)COC1=O
- Activity (Brain): 16%
- pIC50 (Renin): 3.56
- pIC50 (Beta-secretase 2): 4.39
- pIC50 (Cathepsin D): 4.32
- Papp (in vitro): 9 ×10⁻⁶ cm/s

Structure (SMILES): C[C@@]1(N)Cc2cccc(c2F)CC[C@H](c2ccc(F)cc2)NC(=O)c2cc(cc(-c3ccccc3C#N)c2)COC1=O
- Papp (in vitro): 6 ×10⁻⁶ cm/s

Structure (SMILES): C[C@@]1(N)Cc2ccc(F)c(c2)CC[C@H](c2ccc(F)cc2)NC(=O)c2cc(cc(-c3ccccc3C#N)c2)COC1=O
- Papp (in vitro): 9 ×10⁻⁶ cm/s

Structure (SMILES): CCCN(c1cc2cc(c1)C(=O)N[C@@H](c1ccccc1)CCc1cccc(c1)C[C@@](C)(N)C(=O)OC2)S(C)(=O)=O
- pIC50 (Renin): 3.77
- pIC50 (Beta-secretase 2): 4.27
- pIC50 (Cathepsin D): 4.01

Structure (SMILES): C[C@@]1(N)Cc2cccc(c2)CC[C@H](c2ccc(F)cc2)NC(=O)c2cc(cc(-c3cccc(F)c3C#N)c2)COC1=O
- Papp (in vitro): 7 ×10⁻⁶ cm/s

Structure (SMILES): CN(c1cc2cc(c1)C(=O)N[C@@H](c1ccccc1)CCc1cccc(c1)C[C@@](C)(N)C(=O)OC2)S(=O)(=O)C(F)(F)F
- Papp (in vitro): 13 ×10⁻⁶ cm/s

Structure (SMILES): CCCN(c1cc2cc(c1)C(=O)N[C@@H](c1ccccc1)CCc1cccc(c1)C[C@@](C)(N)COC2)S(C)(=O)=O
- pIC50 (Renin): 3.84
- pIC50 (Beta-secretase 2): 5.80
- pIC50 (Cathepsin D): 3.56

Structure (SMILES): C[C@@]1(N)Cc2cccc(c2)CC[C@H](c2ccccc2)NC(=O)c2cc(Br)cc(c2)COC1=O
- Papp (in vitro): 9 ×10⁻⁶ cm/s

Structure (SMILES): C[C@@]1(N)Cc2ccc(F)c(c2)CC[C@H](c2ccc(F)cc2)NC(=O)c2cc(cc(-c3cccc(F)c3C#N)c2)COC1=O
- Papp (in vitro): 6 ×10⁻⁶ cm/s
